Results: patent publication US5204326
Like-named read-outs stand apart in the source and are kept apart here.

Settings: amide bond
[1] = the molecule shown is the open-chain precursor, 23-membered ring, as Reference Example 8 (not in excerpt), 3 steps

H-Ser(Bzl)-Asn-Leu-Ser(Bzl)-Thr(Bzl)-Cpc(ONp)-OMe?
ring closure, isolated yield [1]: 55.9%

H-Abu-Asn-Leu-Ser(Bzl)-Thr(Bzl)-Cec(ONp)-OMe?
ring closure, isolated yield (the molecule shown is the open-chain precursor, as Reference Example 8 (not in excerpt), 3 steps): 47.1%

H-Asn-Leu-Ser(Bzl)-Thr(Bzl)-Lys(COCH2CH2CO-ONp)-OMe?
ring closure, isolated yield [1]: 34.9%

H-Ser(Bzl)-Asn-Leu-Ser(Bzl)-Thr(Bzl)-Tyr(CH2CO-ONp)-OMe?
ring closure, isolated yield (the molecule shown is the open-chain precursor, 25-membered ring, as Reference Example 8, then Reference Example 9 (not in excerpt), 4 steps): 43.8%

Acp-Asn-Leu-Ser(Bzl)-Thr(Bzl)-Asp-OEt
ring closure, isolated yield (23-membered ring, ONp active ester (from TFA-ONp)/pyridine, pyridine/DMF, 50.0 °C, 3 steps): 26.6%
